The values that follow come from patent US8124582B2, “Treatment of diabetes” (FibroGen, Inc., priority 2002, dated 2012).

Each structure is given as a SMILES string.

One test deals with adrenomedullin. In words: In vivo adrenomedullin mRNA expression (microarray). Also noted: species or system Swiss Webster male mice. Conditions: mice, heart, kidney, and lung. Here is the method: (§1) To determine gene induction patterns over time, twenty four Swiss Webster male mice (30-32 g) were obtained from Simonsen, Inc. and treated by oral gavage with a 4 ml/kg volume of either 0.5% carboxymethyl cellulose (CMC; Sigma-Aldrich, St. Louis Mo.) (0 mg/kg/day) or […] compound B (25 mg/ml in 0.5% CMC) (100 mg/kg). At 4, 8, 16, 24, 48, or 72 hours after the final dose, animals were anesthetized with isoflurane. The mice were then sacrificed and tissue samples of kidney, liver, brain, lung, and heart were isolated and stored in RNALATER solution (Ambion) at −80° C.
For measurement of adrenomedullin mRNA expression, samples were prepared and were hybridized and analyzed as described above in Example 4.

In test [1] the test system is PFK-P, PFK-L, enolase-1, GluT-1, lactate dehydrogenase-1, aldolase-1, hexokinase-1. Briefly: In vivo expression of genes encoding enzymes involved in glucose regulation (microarray, time course). Conditions: mice, 100 mg/kg oral gavage. Also noted: species or system Swiss Webster male mice. On the procedure:
as §1
RNA from tissues obtained from the experiments described above was isolated using the following protocol. A 50 mg section of each organ was diced, 875 μl of RLT buffer (RNEASY kit; Qiagen Inc., Valencia Calif.) was added, and the pieces were homogenized for about 20 seconds using a rotor-stator POLYTRON homogenizer (Kinematica, Inc., Cincinnati Ohio). […] The RNA was eluted into 80 μL of water and quantitated with RIBOGREEN reagent (Molecular Probes, Eugene Oreg.). […] The absorbance at 260 and 280 nm was measured to determine RNA purity and concentration.
Alternatively, tissue samples were diced and homogenized in TRIZOL reagent (Invitrogen Life Technologies, Carlsbad Calif.) using a rotor-stator POLYTRON homogenizer (Kinematica). […] The absorbance at 260 and 280 nm was measured to determine RNA purity and concentration. […]

In a further test the test system is aldolase. In words: Aldolase protein expression in 293A cells (Western blot). The format is cell-based, Human. The settings on record: FIG. 1A. On the procedure: The effect of compounds of the present invention on expression of proteins and genes involved in glucose regulation and metabolism as follows. Human 293A cells (adenovirus-transformed fetal kidney epithelium) were plated confluent in 35 mm culture dishes and cultured for 1 day at 37° C., 10% CO2 in DMEM containing 5% FBS and 1% penicillin-streptomycin. The media was changed to Opti-Mem I and incubation was continued for an additional 18 to 24 hours. Vehicle control or compound B was then added to the media and cells were incubated for an additional 24, 48 or 72 hours. Plates were placed on ice, culture supernatant was removed, and lysis buffer-1 (LB-1: 10 mM Tris pH 7.4, 1 mM EDTA, 150 mM sodium chloride, 0.5% IGEPAL) was added. Cell lysates were harvested by scraping, incubated for 15 minutes on ice, and then fractionated by centrifugation at 3000×g for 5 minutes at 4° C. The supernatant, which represented the cytosolic fraction, was collected and cytosolic proteins were separated under reducing conditions using SDS-polyacrylamide gel electrophoresis (SDS-PAGE) with equal amounts of protein loaded per lane.
SDS-PAGE was conducted at 150 V for 2 hours, after which the proteins were transferred to a PVDF membrane at 400 mA for 1.5 hours at 4° C. […]
A general note: In western blotting, separated proteins are transferred to a membrane and probed.

In the case of `O=C(O)CNC(=O)c1nc(Cl)c2ccccc2c1O` [compound B, [(1-Chloro4-hydroxy-isoquinoline-3-carbonyl)-amino]-acetic acid], the expression of adrenomedullin entry in the test on adrenomedullin (100 mg/kg oral gavage, FIG. 10B) was “increased in various tissues”. The “time within which adrenomedullin mRNA levels returned to control levels” value in the test with adrenomedullin (time course) was 16 to 24 h. In addition, the “expression of genes encoding enzymes involved in glucose regulation” value in test [1] (kidney, liver, lung, 4-72 hours after dose, FIGS. 2A-2C) is “increased in a coordinated fashion”. For the same compound, the “time after which most mRNA levels returned to control levels” value in test [1] (time course) lay in the range of 24 to 48 h. In the test on aldolase (293A cells treated for 24, 48, and 72 hours, vs vehicle control), the aldolase expression result was “increased over time”. Besides, in the test with aldolase (293A cells, specificity control), the β-tubulin expression entry is reported as “no increases”.
